Measurements: US20260355196A1, “INHIBITORS AND DEGRADERS OF PIP4K PROTEIN” (Larkspur Biosciences, Inc., priority 2023, published 2026)

The molecules below were run against T1, PIP4K2C (Homo sapiens, UniProt Q8TBX8) (assay: HiBiT PIP4K2C degradation assay in MOLT-4 cells (endogenous PIP4K2C C-terminally tagged with HiBiT)). Conditions: 6 hours of incubation time, rather than 24 hours; MOLT-4, top concentration 10 micromolar; read-out: HiBIT-degradation MOLT4 PIP4k2C DC50 (6 hours, marked *).
T1 sequence (Q8TBX8 1-421): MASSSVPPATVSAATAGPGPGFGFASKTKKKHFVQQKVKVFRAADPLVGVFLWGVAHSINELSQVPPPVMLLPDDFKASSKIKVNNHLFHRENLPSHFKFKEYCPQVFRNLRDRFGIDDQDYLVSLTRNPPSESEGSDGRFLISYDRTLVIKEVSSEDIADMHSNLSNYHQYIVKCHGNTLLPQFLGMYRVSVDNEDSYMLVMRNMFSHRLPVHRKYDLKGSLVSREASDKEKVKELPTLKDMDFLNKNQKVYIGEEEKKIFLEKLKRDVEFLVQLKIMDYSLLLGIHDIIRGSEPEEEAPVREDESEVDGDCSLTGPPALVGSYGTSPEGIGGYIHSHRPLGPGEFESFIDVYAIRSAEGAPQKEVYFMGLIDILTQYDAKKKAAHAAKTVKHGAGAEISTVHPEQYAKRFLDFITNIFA
Format: cell-based
Set-up: untagged in primary human PBMCs and monocyte-derived dendritic cells
Summary of the method: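 DC50 derived by Hill fit of luminescence from Nano-Glo HiBiT lytic detection. Cells were HiBiT knock-in MOLT-4 (C-terminal tag on endogenous PIP4K2C), exposed 6 h or 24 h at 37 C to compound, top concentration 10 micromolar, 3-fold steps, 10 points, duplicates.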

DC50 [nM]	Structure (SMILES)
< 500	CN(C(=O)[C@H]1CC[C@H](N2CCN(c3ccc(NC4CCC(=O)NC4=O)cc3F)CC2)CC1)[C@H]1CC[C@H](Nc2ncc(F)c(-c3cccc(C4CC4)c3)n2)CC1 (stereo partly drawn) [Compound 478, trans-N-((trans)-4-((4-(3-cyclopropylphenyl)-5-fluoropyrimidin-2-yl)amino)cyclohexyl)-4-(4-(4-((2,6-dioxopiperidin-3-yl)amino)-2-fluorophenyl)piperazin-1-yl)-N-methylcyclohexane-1-carboxamide]
< 500	O=C1CCC(Nc2ccc(C3CCN([C@H]4CC[C@H](NC(=O)[C@H]5CC[C@H](Nc6ncc(F)c(-c7cccc(C8(O)CCC8)n7)n6)CC5)CC4)CC3)c(F)c2)C(=O)N1 (stereo partly drawn) [Compound 479, trans-N-((trans)-4-(4-(4-((2,6-dioxopiperidin-3-yl)amino)-2-fluorophenyl)piperidin-1-yl)cyclohexyl)-4-((5-fluoro-4-(6-(1-hydroxycyclobutyl)pyridin-2-yl)pyrimidin-2-yl)amino)cyclohexane-1-carboxamide]
< 500	O=C1CCC(Nc2ccc(C3CCN([C@H]4CC[C@H](NC(=O)[C@H]5CC[C@H](Nc6ncc(F)c(-c7ccnc(N8CCOCC8=O)c7)n6)CC5)CC4)CC3)c(F)c2)C(=O)N1 (stereo partly drawn) [Compound 480, trans-N-((trans)-4-(4-(4-((2,6-dioxopiperidin-3-yl)amino)-2-fluorophenyl)piperidin-1-yl)cyclohexyl)-4-((5-fluoro-4-(2-(3-oxomorpholino)pyridin-4-yl)pyrimidin-2-yl)amino)cyclohexane-1-carboxamide]
< 500	O=C1CCC(Nc2ccc(C3CCN(CC4(O)CCN(C(=O)[C@H]5CC[C@H](Nc6ncc(F)c(-c7cccc(C(=O)N8CC[C@H](O)C8)c7)n6)CC5)CC4)CC3)c(F)c2)C(=O)N1 (stereo partly drawn) [Compound 481, trans-3-((3-fluoro-4-(1-((1-(4-((5-fluoro-4-(3-((S)-3-hydroxypyrrolidine-1-carbonyl)phenyl)pyrimidin-2-yl)amino)cyclohexane-1-carbonyl)-4-hydroxypiperidin-4-yl)methyl)piperidin-4-yl)phenyl)amino)piperidine-2,6-dione]
< 500	O=C1CCC(Nc2ccc(N3CCN(CC4(O)CCN(C(=O)[C@H]5CC[C@H](Nc6ncc(F)c(-c7cccc(C(=O)N8CC[C@H](O)C8)c7)n6)CC5)CC4)CC3)c(F)c2)C(=O)N1 (stereo partly drawn) [Compound 482, trans-3-((3-fluoro-4-(4-((1-(4-((5-fluoro-4-(3-((S)-3-hydroxypyrrolidine-1-carbonyl)phenyl)pyrimidin-2-yl)amino)cyclohexane-1-carbonyl)-4-hydroxypiperidin-4-yl)methyl)piperazin-1-yl)phenyl)amino)piperidine-2,6-dione]
< 500	O=C1CCC(Nc2ccc(N3CCN(CC4CCN(C(=O)[C@H]5CC[C@H](Nc6ncc(F)c(-c7cccc(C(=O)N8CC[C@H](O)C8)c7)n6)CC5)CC4)CC3)c(F)c2)C(=O)N1 (stereo partly drawn) [Compound 483, trans-3-((3-fluoro-4-(4-((1-(4-((5-fluoro-4-(3-((S)-3-hydroxypyrrolidine-1-carbonyl)phenyl)pyrimidin-2-yl)amino)cyclohexane-1-carbonyl)piperidin-4-yl)methyl)piperazin-1-yl)phenyl)amino)piperidine-2,6-dione]
< 500	O=C1CCC(Nc2ccc(N3CCN(CC4(F)CCN(C(=O)[C@H]5CC[C@H](Nc6ncc(F)c(-c7cccc(-c8ccccc8)c7)n6)CC5)CC4)CC3)c(F)c2)C(=O)N1 (stereo partly drawn) [Compound 484, trans-3-[3-fluoro-4-[4-[[4-fluoro-1-[4-[[5-fluoro-4-(3-phenylphenyl)pyrimidin-2-yl]amino]cyclohexanecarbonyl]-4-piperidyl]methyl]piperazin-1-yl]anilino]piperidine-2,6-dione]
< 500	O=C1CCC(Nc2ccc(N3CCN(CC4CCN(C(=O)[C@H]5CC[C@H](Nc6ncc(F)c(-c7cccc(-c8ccccc8)c7)n6)CC5)CC4)CC3)c(F)c2)C(=O)N1 (stereo partly drawn) [Compound 485, trans-3-((4-(4-((1-(4-((4-([1,1′-biphenyl]-3-yl)-5-fluoropyrimidin-2-yl)amino)cyclohexane-1-carbonyl)piperidin-4-yl)methyl)piperazin-1-yl)-3-fluorophenyl)amino)piperidine-2,6-dione]
< 500	O=C1CCC(Nc2ccc(C3CCN(CC4(F)CCN(C(=O)[C@H]5CC[C@H](Nc6ncc(F)c(-c7cccc(-n8ccccc8=O)c7)n6)CC5)CC4)CC3)c(F)c2)C(=O)N1 (stereo partly drawn) [Compound 487, trans-3-((3-fluoro-4-(1-((4-fluoro-1-(4-((5-fluoro-4-(3-(2-oxopyridin-1(2H)-yl)phenyl)pyrimidin-2-yl)amino)cyclohexane-1-carbonyl)piperidin-4-yl)methyl)piperidin-4-yl)phenyl)amino)piperidine-2,6-dione]
< 500	CN(C(=O)[C@H]1CC[C@H](Nc2ncc(F)c(-c3cccc(-n4ccccc4=O)c3)n2)CC1)[C@H]1CC[C@H](N2CCN(c3ccc(NC4CCC(=O)NC4=O)cc3F)CC2)CC1 (stereo partly drawn) [Compound 488, trans-(1r,4R)—N-((1r,4R)-4-(4-(4-((2,6-dioxopiperidin-3-yl)amino)-2-fluorophenyl)piperazin-1-yl)cyclohexyl)-4-((5-fluoro-4-(3-(2-oxopyridin-1(2H)-yl)phenyl)pyrimidin-2-yl)amino)-N-methylcyclohexane-1-carboxamide]
< 500	Cn1nc(C2CCC(=O)NC2=O)c2ccc(N3CCN(C[C@H]4CC[C@H](C(=O)N[C@H]5CC[C@H](Nc6ncc(F)c(-c7cccc(-n8ccccc8=O)c7)n6)CC5)CC4)CC3)cc21 (stereo partly drawn) [Compound 489, trans-(1r,4R)-4-((4-(3-(2,6-dioxopiperidin-3-yl)-1-methyl-1H-indazol-6-yl)piperazin-1-yl)methyl)-N-((1r,4R)-4-((5-fluoro-4-(3-(2-oxopyridin-1(2H)-yl)phenyl)pyrimidin-2-yl)amino)cyclohexyl)cyclohexane-1-carboxamide]
< 500	O=C1CCC(Nc2ccc(N3CCN([C@H]4CC[C@H](NC(=O)[C@H]5CC[C@H](Nc6ncc(F)c(-c7cccc(N8CCCOC8=O)c7)n6)CC5)CC4)CC3)c(F)c2)C(=O)N1 (stereo partly drawn) [Compound 490, trans-N-(trans-4-(4-(4-((2,6-dioxopiperidin-3-yl)amino)-2-fluorophenyl)piperazin-1-yl)cyclohexyl)-4-((5-fluoro-4-(3-(2-oxo-1,3-oxazinan-3-yl)phenyl)pyrimidin-2-yl)amino)cyclohexane-1-carboxamide]
< 500	O=C1CCC(Nc2ccc(N3CCN(CC4(F)CCN(C(=O)[C@H]5CC[C@H](Nc6ncc(F)c(-c7cccc(N8CCCCC8)c7)n6)CC5)CC4)CC3)c(F)c2)C(=O)N1 (stereo partly drawn) [Compound 491, trans-3-((3-fluoro-4-(4-((4-fluoro-1-(4-((5-fluoro-4-(3-(piperidin-1-yl)phenyl)pyrimidin-2-yl)amino)cyclohexane-1-carbonyl)piperidin-4-yl)methyl)piperazin-1-yl)phenyl)amino)piperidine-2,6-dione]
< 500	O=C1CCC(Nc2ccc(N3CCN(CC4(O)CCN(C(=O)[C@H]5CC[C@H](Nc6ncc(F)c(-c7cccc(C8CC8)c7)n6)CC5)CC4)CC3)c(F)c2)C(=O)N1 (stereo partly drawn) [Compound 492, trans-3-((4-(4-((1-(4-((4-(3-cyclopropylphenyl)-5-fluoropyrimidin-2-yl)amino)cyclohexane-1-carbonyl)-4-hydroxypiperidin-4-yl)methyl)piperazin-1-yl)-3-fluorophenyl)amino)piperidine-2,6-dione]
< 500	O=C1CCC(Nc2ccc(N3CCN(CC4(O)CCN(C(=O)[C@H]5CC[C@H](Nc6ncc(F)c(-c7cccc(N8CCCCC8)c7)n6)CC5)CC4)CC3)c(F)c2)C(=O)N1 (stereo partly drawn) [Compound 493, trans-3-[3-fluoro-4-[4-[[1-[4-[[5-fluoro-4-[3-(1-piperidyl)phenyl]pyrimidin-2-yl]amino]cyclohexanecarbonyl]-4-hydroxy-4-piperidyl]methyl]piperazin-1-yl]anilino]piperidine-2,6-dione]
< 500	O=C1CCC(Nc2ccc(N3CCC(N4CCC(NC(=O)[C@H]5CC[C@H](Nc6ncc(F)c(-c7cccc(N8CCCCC8=O)c7)n6)CC5)CC4)C(F)(F)C3)c(F)c2)C(=O)N1 (stereo partly drawn) [Compound 494, trans-N-(1′-(4-((2,6-dioxopiperidin-3-yl)amino)-2-fluorophenyl)-3′,3′-difluoro-[1,4′-bipiperidin]-4-yl)-4-((5-fluoro-4-(3-(2-oxopiperidin-1-yl)phenyl)pyrimidin-2-yl)amino)cyclohexane-1-carboxamide]
< 500	O=C1CCC(Nc2ccc(N3CCC(N4CCC(NC(=O)[C@H]5CC[C@H](Nc6ncc(F)c(-c7cccc(N8CCCOC8=O)c7)n6)CC5)CC4)C(F)(F)C3)c(F)c2)C(=O)N1 (stereo partly drawn) [Compound 495, trans-N-(1′-(4-((2,6-dioxopiperidin-3-yl)amino)-2-fluorophenyl)-3′,3′-difluoro-[1,4′-bipiperidin]-4-yl)-4-((5-fluoro-4-(3-(2-oxo-1,3-oxazinan-3-yl)phenyl)pyrimidin-2-yl)amino)cyclohexane-1-carboxamide]
